According to article PMC5407626 (PLoS ONE, 2017):
Where “and” joins values, the source holds several entries; their conditions need not be identical. Equal values may be shown once. Read-outs that look alike come from different tables or passages of the source.

How the values were obtained:
[1] = target: T1, SCD1 (Homo sapiens, UniProt O00767); experiment: SCD1 activity in ARPE-19 cells (conversion of methyl-D3 palmitic acid to methyl-D3 palmitoleic acid, LC/MS); type: cell-based; conditions: for Palmitate (AUC) / Palmitoleic Acid (AUC) / Ratio (16:0 / 16:1): 10 μM 16 h, then 50 μM D3-palmitic acid 5 h, single samples; for effect on SCD1 activity: ARPE-19 cells; for effect on SCD1 activity / Mean Ratio (16:0 / 16:1): 10 μM; for Mean Ratio (16:0 / 16:1): mean of 3 samples, DMSO 8.884
T1 construct: endogenous in cells; host or cells: ARPE-19
T1 sequence (O00767 1-359): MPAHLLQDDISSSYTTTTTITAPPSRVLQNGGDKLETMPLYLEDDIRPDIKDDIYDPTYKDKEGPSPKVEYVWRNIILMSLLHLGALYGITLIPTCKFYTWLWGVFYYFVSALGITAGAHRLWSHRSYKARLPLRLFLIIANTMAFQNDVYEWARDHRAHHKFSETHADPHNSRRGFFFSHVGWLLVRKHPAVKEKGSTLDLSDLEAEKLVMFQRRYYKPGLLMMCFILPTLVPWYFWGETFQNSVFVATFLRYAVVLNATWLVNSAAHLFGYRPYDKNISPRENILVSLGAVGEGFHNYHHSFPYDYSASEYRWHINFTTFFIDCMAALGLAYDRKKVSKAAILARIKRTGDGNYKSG
Method: Compounds were dissolved in dimethyl sulfoxide (DMSO) and then added to the cell culture medium. Cells designated as control received an equal amount of dimethyl sulfoxide. After 16 h, cells were incubated with 50 μM palmitic acid triply deuterated (D3) on the methyl group (Cambridge Isotope Laboratories, Tewksbury, MA) for an additional 5 h before harvesting.
Cells were detached from culture plates using 0.05% Trypsin-EDTA, washed with PBS, and pelleted. Cell pellets were resuspended in 450 μl Cell Lysis Buffer (Cell Signaling Technology, Danvers, MA) then sonicated on ice until uniformly dispersed. An aliquot (50 μl) of the dispersed cell suspension was used for protein quantitation, and the remaining 400 μl was used for lipid extraction as follows. Samples were spiked with a small volume of pentadecanoic acid (in CHCl3) as internal standard, and were then subjected to saponification (by addition of an equal volume of 0.6 M methanolic KOH and incubating at 72°C for 15 minutes). Following saponification, samples were acidified by addition of 100 μl formic acid. The acidified mixture was extracted twice with 1 ml chloroform to recover free fatty acids. The chloroform extracts were pooled, solvent was evaporated under argon at 37°C, and the residue was resolubilized in 100 μl chloroform/methanol (1:4) for analysis by liquid chromatography mass spectrometry (LC/MS) using a modification of the procedures of Dillon et al.. The LC-MS system consisted of a 1200 Series Capillary LC (Agilent, Santa Clara, CA) coupled to a Micromass Q-Tof micro mass spectrometer (Waters Corp., Milford, MA) equipped with an electrospray ionization source. Separation of fatty acids was achieved by isocratic elution on a PLRP-S polymeric reversed-phase column (100 Å, 3 μm, 2.1 x 150 mm; Agilent) heated to 65°C. A mobile phase consisting of 25% acetonitrile:chloroform (1:1), 40% methanol, 25% water, 10% 10 mM ammonium acetate was run at a flow rate of 0.1 ml/min. The mass spectral analysis of the fatty acids was performed in the negative ion mode using the following instrument settings: capillary voltage, 1600; sample cone voltage, 40; cone gas flow, 40 L/hr; desolvation gas flow, 400 L/hr; source temperature, 80°C; desolvation temperature, 100°C. Data was then analyzed using MassLynx software v 4.1 (Waters) by extracting the ion chromatograms of the labeled palmitic and palmitoleic acid peaks and measuring peak area.
Cell lysates were analyzed by Western blotting using mouse monoclonal antibody against SCD1 (upper panel) in comparison with immunoreactivity to α-tubulin which was employed as a loading control (lower panel) and densitometry for each lane was performed and analyzed by ImageJ to provide the SCD1/α-tubulin ratio for each lane. […] Free fatty acids present in lipid extracts were analyzed by LC/MS and SCD1 activity, measured by the conversion of methyl-D3 palmitic acid to methyl-D3 palmitoleic acid, was determined. […] Lipids were extracted from two 100 mm Petri dishes and combined for mass spectrometry analysis. Data plotted as means ± standard deviation; n = 3. […] They are given here as printed results in cells, but it is uncertain whether they fall under the exclusion for gels and blots. / Panel A: the Control lane (1.00) is left out because it is not a substance.

[2] = target: T2, RARβ (Homo sapiens, UniProt P10826); experiment: GeneBLAzer RAR-beta DA assay, agonist mode; type: cell-based
T2 sequence (P10826 183-417 limits assumed): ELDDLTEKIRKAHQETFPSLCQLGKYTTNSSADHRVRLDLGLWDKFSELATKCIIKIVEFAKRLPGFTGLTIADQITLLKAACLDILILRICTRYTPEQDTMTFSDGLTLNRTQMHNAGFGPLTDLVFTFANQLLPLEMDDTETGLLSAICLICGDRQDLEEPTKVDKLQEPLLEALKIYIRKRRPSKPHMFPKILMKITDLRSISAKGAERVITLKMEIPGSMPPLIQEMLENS
Method: The potency of agonists and antagonists was measured by GeneBLAzer RAR-beta DA Assay Kit (ThermoFisher Scientific) according to the manufacturer’s recommendations.
The phenylretinamides may have the ability to modulate the expression of proteins and induce cell apoptosis via RAR-dependent and -independent pathways. […] Human retina-derived cells in culture show differences in expression of RAR receptors. […] Clonetics HRPE primary human cells specifically express only RARβ [50].

[3] = target: T3, recombinant mouse BCO1 (Mus musculus, UniProt Q9JJS6); experiment: In vitro inhibition of recombinant mouse BCO1 activity; type: biochemical
T3 construct: His-tag; made in house; host or cells: E. coli
T3 sequence (Q9JJS6 1-566): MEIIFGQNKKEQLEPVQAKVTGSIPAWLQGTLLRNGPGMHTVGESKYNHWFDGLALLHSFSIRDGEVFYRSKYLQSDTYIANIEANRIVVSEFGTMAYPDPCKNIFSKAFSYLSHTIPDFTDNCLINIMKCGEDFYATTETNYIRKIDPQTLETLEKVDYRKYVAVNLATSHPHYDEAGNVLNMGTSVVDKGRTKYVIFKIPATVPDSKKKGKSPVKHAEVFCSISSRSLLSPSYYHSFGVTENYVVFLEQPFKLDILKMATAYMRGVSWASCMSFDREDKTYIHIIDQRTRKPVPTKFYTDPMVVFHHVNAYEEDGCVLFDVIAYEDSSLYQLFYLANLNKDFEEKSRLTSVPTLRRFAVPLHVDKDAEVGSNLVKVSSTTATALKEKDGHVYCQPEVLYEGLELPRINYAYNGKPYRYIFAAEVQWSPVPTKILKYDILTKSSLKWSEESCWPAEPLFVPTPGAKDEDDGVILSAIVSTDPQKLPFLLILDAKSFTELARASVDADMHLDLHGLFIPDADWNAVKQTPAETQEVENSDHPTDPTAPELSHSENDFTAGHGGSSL
Description: Recombinant His-tag mouse BCO1 was produced in E.coli and purified using Talon CellThru (Clontech Labs, Inc., Mountain View, CA) resin as described previously. β-carotene was delivered in 1% octylthioglucoside. […] All other inhibitors were delivered in ethanol. […] The final concentration of ethanol in all samples was 1%. […] Data plotted as means±standard deviation; n = 3; […] Analysis was done in C57BL/6 wt (3 animals) and Bco1^-/- mice (13 animals).

[4] = mice, after 4 hours of treatment; cited from earlier work

Compound: CC1=C(/C=C/C(C)=C/C=C/C(C)=C/C(=O)Nc2ccc(O)cc2)C(C)(C)CCC1 [fenretinide, N-[4-hydroxyphenyl]retinamide]
- Palmitate (AUC) ([1]; listed as 4HPR): 1258.94 and 1398.36 and 1783.91
- Palmitoleic Acid (AUC) ([1]; listed as 4HPR): 12.20 and 15.08 and 14.79
- effect on SCD1 activity [1]: effective inhibitors of SCD1 activity
- EC50 [2]: 560 nM

Compound: CC1=C(/C=C/C(C)=C/C=C/C(C)=C/C(=O)Nc2ccc(O)cc2)C(C)(C)CCC1=O [3-keto-HPR, 4-oxo-N-(4-hydroxyphenyl)retinamide]
- IC50 [3]: 4000 nM
- Palmitate (AUC) [1]: 1476.16 and 1271.38 and 1913.30
- Palmitoleic Acid (AUC) [1]: 17.56 and 10.07 and 19.08
- Ratio (16:0 / 16:1) [1]: 84.064 and 126.254 and 100.278
- Mean Ratio (16:0 / 16:1) [1]: 103.532
- effect on SCD1 activity [1]: effective inhibitors of SCD1 activity
- metabolite level as % of plasma levels of 4-HPR [4]: ~ 23%

Compound: O=C(O)c1ccccc1NC(=O)N1CCC(c2ccccc2C(F)(F)F)CC1 [A1120]
- effect on BCO1 activity ([3]; inhibitor 0–200 μM): does not affect BCO1 activity
- Palmitate (AUC) [1]: 625.27 and 963.80 and 854.94
- Palmitoleic Acid (AUC) [1]: 74.04 and 107.80 and 111.92
- Ratio (16:0 / 16:1) [1]: 8.445 and 8.941 and 7.639
- Mean Ratio (16:0 / 16:1) [1]: 8.342
- effect on SCD1 activity [1]: no inhibitory effect on SCD1 activity at all

Compound: COc1ccc(NC(=O)/C=C(C)/C=C/C=C(C)/C=C/C2=C(C)CCCC2(C)C)cc1 [MPR, N-[4-methoxyphenyl]retinamide]
- IC50 ([3]; 20 μM β-carotene, enzyme preincubated with inhibitor 10 min at 4°C, read-out: IC50 BCO1): 5000 nM
- Palmitate (AUC) [1]: 2368.01 and 2526.72 and 1327.38
- Ratio (16:0 / 16:1) [1]: 8.882 and 7.657 and 8.556
- Mean Ratio (16:0 / 16:1) [1]: 8.365
- effect on SCD1 activity [1]: no inhibitory effect on SCD1 activity at all
- EC50 [2]: 1000 nM and 1010 nM
